According to patent publication US20230052667A1, “AGENT FOR MAINTAINING OR ENHANCING COLLAGEN PRODUCTION ABILITY” (Shiseido Company, Ltd., priority 2020, published 2023):

Tested on: human skin-derived fibroblasts
Experiment: Collagen quantification in fibroblasts after artificial sunlight irradiation through the wavelength conversion substance
Type: cell-based
Details: artificial sunlight 80 minutes passed through substance (10% phosphor film or 1% aqueous solution, no cell contact); collagen measured 3 days after irradiation; UV-only control 14 μg collagen/well
Experimental: Preparation method: A film containing 10% Zinc Oxide phosphor, a film containing 10% magnesium titanate phosphor were used, and C-phycocyanin was dissolved in ultrapure water at a concentration of 1% and used as a solution. • Cells: human skin-derived fibroblasts • Collagen assay kit: Cosmo Bio Co., COL-001 • DNA-quantitation kit: Cosmo Bio Co., AK06 • Artificial Sunlight Irradiation System: Celick Corporation: XC-500BF
Human skin-derived fibroblasts cultured in 75 cm^2 flasks were treated with trypsin, and after harvesting the cells, the cells were seeded at a density of 2×10^5 cells/dish using medium on five 6-well plates according to the plate arrangement below. […]
After 3 days from illumination, culture supernatants were removed from wells for collagen quantitation in each treatment group and washed with PBS. Collagen in human fibroblast layers was extracted and measured according to the protocol of the collagen quantitation kit (https://search.cosmobio.co.jp/cosmo_searchp/search_gate2/docs/CSR_/COL001.20190327.pdf). In addition, the amount of DNA in samples after collagen extraction was determined for correction of collagen quantitative results according to the protocol of the Quantitative Kit of DNA (https://search.cosmobio.co.jp/cosmo)_search_p/search_gate2/docs/PMC_/AK06.20140507.pdf).

Question: C-phycocyanin was tested. Which “collagen produced by UV-irradiated fibroblasts” value did it give?
Answer: Its value is 25 μg collagen/well.
